Measured values from patent US20120101164A1, “ABSCISSION AND CROP STORAGE UNIT” (TAMINCO, NAAMLOZE VENNOOTSCHAP, priority 2009, published 2012).
Like-named read-outs stand apart in the source and are kept apart here.

What was measured:
Assay type in all cases: in vivo
[1] = system: PAPAVER Nudicaule (Iceland Poppy); test: Petal abscission delay, auxins/precursors with or without AC; details: for change in vivo at 10000 µM: Papaver nudicaule; for Total Duration of Flowering (to petal fall): auxin/precursor 10^-2 Molar solution, AC 3 g per hectare equivalent
Experimental: (§1) Cultural Details: plants were sown in a commercial seed compost and then “pricked out” into a professional grade all-purpose compost in 9 cm pots set out in a randomized block design. Normal daylight plus supplementary lighting to provide a minimum of 10 hours per day. Heating was given to a minimum of 60 degrees Fahrenheit during the day and 40 degrees at night.
Sowing Date: 18 Nov. […] Application Date: 5 Jan.
Measurement Date: 12 Jan.
A number of auxins or auxin precursors were applied, each at 10^−2 Molar solutions. Addition of acetaminophen (AC) was at 3 g per hectare equivalent in each test. Measurement: Delay of first petal fall for each treatment (in days).

[2] = system: RADISH—cv F1 Apache; test: Post-harvest shelf-life, auxins/precursors with or without AC; details: for change in vivo at 10000 µM: Raphanus sativus; for Shelf-Life Duration (days after harvest): ambient temperature, auxin/precursor 10^-2 Molar, AC 3 g per hectare equivalent, two applications
Experimental: as §1
Sowing Date: 3 Nov. […] Application Dates: 28 Dec. […] Harvest Date: 11 Jan. […] Measurement: Shelf-Life (days after harvest) at ambient temperature.
A number of auxins or auxin precursors were compared, each at 10^−2 Molar solutions. Addition of acetaminophen (AC) was at 3 g per hectare equivalent in each test.

[3] = system: RADISH—cv F1 Apache; test: Post-harvest shelf-life, AN or AN + AC with additives; details: for Shelf-Life Duration (days after harvest): AN 1 g per hectare, AC 3 g per hectare, additive rate per ha as in label
Experimental: (§2) To each were added certain agrochemically acceptable additives, as examples.
as §1
Sowing Date: 28 Jan. 2010, in plugs. Application Date: 5 Mar. 2010.
Measurement Date: 13 Mar. 2010. • Measurement: Shelf-life duration (days).

[4] = system: PAPAVER Nudicaule (Iceland Poppy); test: Petal abscission delay, AN or AN + AC with additives; details: for Total Duration of Flowering (to petal fall): AN 1 g per hectare, AC 3 g per hectare, additive rate per ha as in label
Experimental: as §2, §1
Sowing Date: 19 Dec. 2009, in plugs. Application Date: 7 Feb. 2010.
Measurement Date: 12 Feb. 2010, at daily intervals.
Measurement: Delay of first petal-fall for each treatment (in days).

[5] = read-out: % Improvement over control, duration of flowering
[6] = read-out: % Improvement over control, shelf-life
[7] = read-out: % Improvement over control
[8] = duration of flowering, read-out: % Improvement over control
[9] = shelf-life, read-out: % Improvement over control

SMILES	change in vivo at 10000 µM [1, 5] [%]	Total Duration of Flowering (to petal fall) [1] [days]	change in vivo at 10000 µM [2, 6] [%]	Shelf-Life Duration (days after harvest) [2] [days]	change in vivo at 10000 µM [1, 8] [%]	change in vivo at 10000 µM [2, 9] [%]	further results
NCCc1c[nH]c2ccccc12 [Tryptamine]	19.4	11.7	11.1	7.0	–	–	–
N[C@@H](Cc1c[nH]c2ccccc12)C(=O)O [L-Tryptophan]	–	10.8	–	6.5	–	–	change in vivo at 10000 µM [1, 7]: 10.2%; change in vivo at 10000 µM [2, 7]: 3.2%
CC(N)=O [Acetamide]	–	11.7	–	8.7	19.4	38.1	–
COC(=O)c1ccccc1N [Anthranilic acid methyl ester]	23.5	12.1	38.1	8.7	–	–	–
NC(=O)Cc1c[nH]c2ccccc12 [Indole-3-acetamide]	–	11.9	–	6.5	21.4	3.2	–
Nc1ccccc1C(=O)[O-].[Na+] [Anthranilic Acid monosodium salt]	19.4	11.7	22.2	7.7	–	–	–
CC(=O)Nc1ccc(O)cc1 [AC, N-(4-hydroxypheyl)acetamide, reference compound]	–	9.9	–	6.2	0	0	Shelf-Life Duration (days after harvest) [3]: 5.8 days; Total Duration of Flowering (to petal fall) [4]: 8.8 days
Nc1c(O)cccc1C(=O)O [3-Hydroxyanthranilic acid]	–	11.6	–	7.3	18.4	15.9	–
Nc1ccccc1C(=O)O [Anthranilic acid, anthranilic acid]	–	12.2	–	8.6	–	–	% Improvement over control ([1]; duration of flowering): +24.5%; Shelf-Life Duration (days after harvest) [3]: 8.5 days; % Improvement over untreated ([3]; shelf-life): +44.1%; Total Duration of Flowering (to petal fall) [4]: 10.9 days; % Improvement over appropriate control (ie AN or AN + AC) ([4]; duration of flowering): +0.0%; % Improvement over untreated ([4]; duration of flowering): +23.9%; % Improvement over control ([2]; shelf-life): +36.5%
